4 compounds from patent US8313920B2, “High-throughput assay for evaluating dipeptidyl peptidase I activity” (Janssen Research & Development, LLC, priority 2008, dated 2012) can be followed below.

Assay type in all cases: biochemical
Experiment [1] deals with T1, dipeptidyl peptidase I (DPPI) (Homo sapiens, UniProt P53634).
T1 construct: made in house; host or cells: Hi5 insect cells (baculovirus)
Kind of experiment: DPPI assay with label-free 20-mer peptide substrate, mass spectrometry (RapidFire, SIM), screening of test compounds. The conditions noted are these: for IC50: 20-mer peptide substrate (SEQ ID NO:1) 20 μM, about 2 nM DPPI, 27° C., 60 min, semi-log plot analysis, read-out: IC50 of DPPI inhibition; for effect on DPPI activity in the reaction with the 20-mer substrate: 20-mer peptide substrate, mass spectrometry. Here is the method:
(§1) FIG. 2. Evaluating the DPPI-modulating activity with two test compounds using a dipeptide substrate (A) and using a 20-mer peptide substrate (B). (A) About 0.4 nM of DPP1 and about 10 μM of dipeptide substrate GR-α-methylcoumarin were used in a rate-based format and monitored with fluorescence at EM=460 nm and EX=380 nm. (B) About 2 nM of DPPI and 20 μM of the 20-mer peptide substrate […] (SEQ ID NO:1) were used in a reaction and monitored with a mass spectrometry system. 2-(piperidin-1-ylcarbonyl)phenol is represented by solid squares and 2-(piperidin-1-ylcarbonyl)aniline is represented by solid circles. R^2-values is >0.95.
When a candidate compound is identified, the IC50 of the DPPI inhibition by the candidate compound is calculated using the formula (II):
[formula] wherein • Si is net substrate turnover signal of sample • So is net substrate turnover signal of positive control • Smin is net am signal of negative control • I is concentration of a candidate compound wherein a positive control is a reaction without any test compound and a negative control is a reaction without DPPI or substrate.
About 2 nM of DPPI was incubated with about 0.5, 1, 2, 4, 8, 16, 32, 64, 90, 128, 150 μM of the 20-mer substrate in the reaction buffer of 50 mM HEPES (pH 7.0), 100 mM NaCl, 0.005% Tween-20, and 2 mM of DTT or GSH. The reaction was incubated at about 27° C. and terminated with about 1/10 volume of 2% trifluoroacetic acid at multiple time points at 0, 2, 5, 10, 20, 30, 45, 60, 75, 90, and 120 mins. An aliquot of about 10 μl of the quenched reaction was used for detecting the substrate turnover by RapidFire (BioTrove, Woburn, Mass.) with a C4 cartridge. The reaction was loaded onto the cartridge, which was equilibrated with the stationary phase of 0.1% formic acid+0.02% TFA and developed with the mobile phase of 90% MeCN+0.1% formic acid+0.02% TFA at about 1 ml per min. The 20-mer substrate at SIM 1112 amu (atomic mass unit) and the corresponding 18-mer product at SIM 1019 were monitored using Agilent 1100 series LCMSD (Santa Clara, Calif.) in the positive ion mode monitoring.
Two fragment compounds, 2-(piperidin-1-ylcarbonyl)phenol and 2-(piperidin-1-ylcarbonyl)aniline were evaluated for their activity to modulate DPPI. A dilution series of the compounds of about 0.1 mM to about 100 mM was made in 100% DMSO. About one μl of a test compound and about 8 μl of about 3.75 nM DDP-1 were added to a 384-well polypropylene plate (Greiner Bio-One North America Inc., Monroe, N.C.). The proteolytic reaction was initiated by the addition of about 1 μl of 200 μM substrate. […] An aliquot of about 10 μl of the quenched reaction was analyzed by RapidFire™ as described in Examples 3 and 4.

The target in experiment [2] is T1, dipeptidyl peptidase I (DPPI). Kind of experiment: Rate-based DPPI assay with dipeptide substrate GR-alpha-methylcoumarin, fluorescence, test compounds. The conditions noted are these: dipeptide substrate GR-α-methylcoumarin about 10 μM, about 0.4 nM DPPI, compound up to 10 mM. Here is the method: as §1
The DPPI activity was analyzed with either the dipeptide substrate, Gly-Arg, labeled with alpha-methylcoumarin (AMC), or the 20-mer peptide substrate of SEQ ID NO: 1. […] The fluorescence (Ex=380 nm, EM=460 nm) was monitored continuously from about 0 to 10 mins, using a Safire II (Tecan, Switzerland) to determine the DPPI activity. […]
Two fragment compounds, 2-(piperidin-1-ylcarbonyl)phenol and 2-(piperidin-1-ylcarbonyl)aniline were evaluated for their activity to modulate DPPI. […] An aliquot of about 10 μl of the quenched reaction was analyzed by RapidFire™ as described in Examples 3 and 4.

Experiment [3] shares this target. Put plainly: Initial velocity analysis of DPPI with the dipeptide substrate Gly-Arg-AMC, fluorescence. The conditions noted are these: dipeptide GR-AMC as DPPI substrate, about 0.4 nM DPPI, pH 7.0. As for the experimental part: (§2) FIG. 1. Initial velocity analysis for DPP1 kinetic constant in reaction with a 20-mer substrate (A) and a dipeptide substrate (B). (A) About 2 nM of DPPI was used in the reaction with the 20-mer substrate of […] (SEQ ID NO:1) and the reaction was monitored using a mass spectrometry system. (B) About 0.4 nM of DPP1 was used in the reaction with the dipeptide substrate of GR-α-methylcoumarin and the reaction was monitored using a rate-based format monitoring fluorescence at EM=460 nm and EX=380 nm. Initial rates are taken from kinetic data where less than 7% substrate turnover was achieved.
(§3) Once the rate of the substrate turnover under the initial velocity condition, the kinetic constants for DPPI and the peptide substrate are calculated using the following formula (I): Y=VMAX((X+Et+KM)−((((Et+X+KM)^2)−(4XEt))^0.5))/(2Et) wherein • Y is concentration of substrate turnover • X is substrate concentration • Et is DPPI concentration • KM is substrate concentration at ½ VMAX • VMAX is substrate turnover at substrate saturation
The DPPI activity was analyzed with either the dipeptide substrate, Gly-Arg, labeled with alpha-methylcoumarin (AMC), or the 20-mer peptide substrate of SEQ ID NO: 1. For the dipeptide substrate, about 0.4 nM of DPPI was incubated with about 1, 2, 5, 10, 25, 50, 100, 150, 300, 600 μM of the dipeptide substrate in 10 ul of reaction buffer of 50 mM Hepes (pH 7.0), 100 mM NaCl, 0.005% Tween-20, and 2 mM of DTT or GSH. The fluorescence (Ex=380 nm, EM=460 nm) was monitored continuously from about 0 to 10 mins, using a Safire II (Tecan, Switzerland) to determine the DPPI activity. The condition for the 20-mer peptide substrate was the same as described above.

For experiment [4] the target is unchanged. Kind of experiment: Initial velocity analysis of DPPI with the 20-mer substrate, mass spectrometry. The conditions noted are these: 20-mer as DPPI substrate, about 2 nM DPPI, pH 7.0, about 27° C. Here is the method: as §2, §3
About 2 nM of DPPI was incubated with about 0.5, 1, 2, 4, 8, 16, 32, 64, 90, 128, 150 μM of the 20-mer substrate in the reaction buffer of 50 mM HEPES (pH 7.0), 100 mM NaCl, 0.005% Tween-20, and 2 mM of DTT or GSH. […]

Residues, ends and D or L forms follow the SMILES beside them. No end group written: not given here. *: point of attachment. AMC = Cc1cc(=O)oc2cc(N*)ccc12

T1 sequence (P53634 25-134 limits assumed, species assumed): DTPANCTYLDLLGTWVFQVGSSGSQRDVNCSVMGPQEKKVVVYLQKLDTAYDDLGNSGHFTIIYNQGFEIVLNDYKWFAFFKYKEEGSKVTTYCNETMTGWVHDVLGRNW
T1 sequence (P53634 231-394 limits assumed, species assumed): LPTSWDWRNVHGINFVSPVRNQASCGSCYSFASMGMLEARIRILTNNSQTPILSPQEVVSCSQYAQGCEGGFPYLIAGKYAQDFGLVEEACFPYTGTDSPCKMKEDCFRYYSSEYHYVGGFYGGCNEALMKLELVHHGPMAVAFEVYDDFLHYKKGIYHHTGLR
T1 sequence (P53634 395-463 limits assumed, species assumed): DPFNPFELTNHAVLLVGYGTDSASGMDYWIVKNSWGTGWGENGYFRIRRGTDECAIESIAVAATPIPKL

Take `Nc1ccccc1C(=O)N1CCCCC1` [2-(piperidin-1-ylcarbonyl)aniline]: in experiment [1], the IC50 was ~1000 µM and the “effect on DPPI activity in the reaction with the 20-mer substrate” value is recorded as “modulated the DPPI activity in a concentration dependent manner”. Moreover, the “effect on DPPI activity in the reaction with the dipeptide substrate” value in experiment [2] is on record as “neither compound, even in high concentration of 10 mM, affected the DPPI activity”.
As to `O=C(c1ccccc1O)N1CCCCC1` [2-(piperidin-1-ylcarbonyl)phenol], in experiment [1], the IC50 is ~100 µM and the “effect on DPPI activity in the reaction with the 20-mer substrate” value was “modulated the DPPI activity in a concentration dependent manner”. Further, the “effect on DPPI activity in the reaction with the dipeptide substrate” value in experiment [2] is listed as “neither compound, even in high concentration of 10 mM, affected the DPPI activity”.
Turning to `Cc1cc(=O)oc2cc(NC(=O)[C@H](CCCNC(=N)N)NC(=O)CN)ccc12` [Dipeptide, Gly-Arg, labeled with alpha-methylcoumarin (AMC)] (H-Gly-Arg-{AMC}), in experiment [3], the “2nd order rate constant” value is 1.48e+06 M⁻¹ s⁻¹, the Michaelis constant (Km) amounted to 64 µM and the kcat stood at 5667 Mmin^−1.
For the compound GEIIGGTECKPHSRPYMAYL [20-mer], the Km in experiment [4] is 62 µM.

Usually IC50 stands for the midpoint of a concentration-inhibition curve. The term Km denotes the concentration of substrate that gives half-maximal velocity.
